Tests used:
[1] = 24 hr in-vivo study: meloxicam plasma concentration and pharmacokinetics after oral (gavage) administration to male rats; settings: male rats, 1 mg/kg oral; for AUC (area under the plasma concentration-time curve at 24 h) / Cmax (peak plasma concentration) / F (bioavailability): mean N = 5; for Time to Reach 0.59 μg/ml: calculated by interpolation of time vs. concentration data
Excerpt: Male Sprague-Dawley rats, 250-300 g, received with a surgically implanted jugular catheter in place from (Harlan or Taconic Laboratories, USA). Animals were housed one per polycarbonate cage utilizing individual cage cards, with free access to food and water in accordance with NIH guidelines. Animals were quarantined at least 24 hrs after arrival prior to use and patency of the implanted catheter determined on the day of the test. Environmental controls for the animal room were set to maintain 18 to 26° C., a relative humidity of 30 to 70%, a minimum of 10 air changes/hour, and a 12-hour light/12-hour dark cycle. Rats historically have been used in safety evaluation and PK screening studies and are recommended by appropriate regulatory agencies. […] Each rat was weighed and the dose volume adjusted accordingly so that the effect of weight variability on results of study was eliminated and that each rat received 1 mg/kg dose.
Pharmacokinetic parameters were calculated from individual animal samples using appropriate software (PK Solutions 2.0, Summit Research Services, Montrose, Calif., USA).

[2] = 4 hr in-vivo study: meloxicam plasma concentration after oral delivery to rats; settings: rat
Excerpt: Male Sprague-Dawley rats, 250-300 g, received with a surgically implanted jugular catheter in place from (Harlan or Taconic Laboratories, USA). Animals were housed one per polycarbonate cage utilizing individual cage cards, with free access to food and water in accordance with NIH guidelines. Animals were quarantined at least 24 hrs after arrival prior to use and patency of the implanted catheter determined on the day of the test. Environmental controls for the animal room were set to maintain 18 to 26° C., a relative humidity of 30 to 70%, a minimum of 10 air changes/hour, and a 12-hour light/12-hour dark cycle. […] Each rat was weighed and the dose volume adjusted accordingly so that the effect of weight variability on results of study was eliminated and that each rat received 1 mg/kg dose.
Briefly, using a gradient elution with a Waters Symmetry C18 column (Waters Inc. USA), LCMS with selective reaction monitoring, protein precipitation of the plasma sample using acetonitrile where an LOQ of 50 ng/ml was achieved. Pharmacokinetic parameters were calculated from individual animal samples using appropriate software (PK Solutions 2.0, Summit Research Services, Montrose, Calif., USA).

| SMILES | meloxicam plasma concentration ([1]; N = 5, 0.25 hour) [µg/mL] | meloxicam plasma concentration ([1]; N = 5, 0.5 hour) [µg/mL] | AUC (area under the plasma concentration-time curve at 24 h) [1] [ng·h/mL] | Cmax (peak plasma concentration) [1] [ng/mL] | F (bioavailability) [1] [%] | Time to Reach 0.59 μg/ml [1] [min] | meloxicam plasma concentration ([2]; time 0 min) [µg/mL] | meloxicam plasma concentration ([2]; time 15 min) | meloxicam plasma concentration ([2]; time 30 min) [µg/mL] | meloxicam plasma concentration ([2]; time 45 min) [µg/mL] | meloxicam plasma concentration ([2]; time 60 min) [µg/mL] | meloxicam plasma concentration ([2]; time 120 min) [µg/mL] | meloxicam plasma concentration ([2]; time 240 min) [µg/mL] | meloxicam plasma concentration ([2]; time 15 min, listed as 87) [µg/mL] | meloxicam plasma concentration ([2]; time 30 min, listed as 87) [µg/mL] | meloxicam plasma concentration ([2]; time 45 min, listed as 87) [µg/mL] | meloxicam plasma concentration ([2]; time 60 min, listed as 87) [µg/mL] | meloxicam plasma concentration ([2]; time 120 min, listed as 87) [µg/mL] | meloxicam plasma concentration ([2]; time 240 min, listed as 87) [µg/mL] |
| --- | --- | --- | --- | --- | --- | --- | --- | --- | --- | --- | --- | --- | --- | --- | --- | --- | --- | --- | --- |
| Cc1cnc(NC(=O)C2=C(O)c3ccccc3S(=O)(=O)N2C)s1.O=C(O)/C=C\C(=O)O [Cocrystal 21, Meloxicam:Maleic Acid Cocrystal (1:1)] | 0.62 | 0.72 | 25300 | 1490 | 39.8 | 13.4 | 0.3 | 19.77 µg/mL | 26.13 | 31.19 | 32.84 | 35.02 | 42.12 |  |  |  |  |  |  |
| Cc1cnc(NC(=O)C2=C(O)c3ccccc3S(=O)(=O)N2C)s1.O=C(O)CC(=O)O [Cocrystal 22, Meloxicam:Malonic Acid Cocrystal (1:1)] |  |  |  |  |  |  | 0 | 7.51 µg/mL | 22.15 | 27.00 | 29.33 | 29.57 |  |  |  |  |  |  |  |
| Cc1cnc(NC(=O)C2=C(O)c3ccccc3S(=O)(=O)N2C)s1.O=C(O)CO [Cocrystal 28, Meloxicam:Glycolic Acid Cocrystal (1:1)] |  |  |  |  |  |  | 0 | 6.25 µg/mL | 16.88 | 22.66 | 27.26 | 20.77 | 34.50 |  |  |  |  |  |  |
| Cc1cnc(NC(=O)C2=C(O)c3ccccc3S(=O)(=O)N2C)s1.Cc1cnc(NC(=O)C2=C(O)c3ccccc3S(=O)(=O)N2C)s1.O=C(O)C[C@H](O)C(=O)O [Cocrystal 71, Meloxicam: L-Malic Acid Cocrystal (2:1)] |  |  |  |  |  |  | 0 | 24.98 µg/mL | 32.05 | 30.38 | 30.95 |  | 38.59 |  |  |  |  |  |  |
| Cc1cnc(NC(=O)C2=C(O)c3ccccc3S(=O)(=O)N2C)s1.O=C(O)c1ccc2ccccc2c1O [Cocrystal 76, Meloxicam: 1-Hydroxy-2-Naphthoic Acid Cocrystal (1:1)] | 2.1 | 2.49 | 62500 | 4150 | 98.3 | 6.5 | 0 |  | 39.24 | 45.29 | 44.60 | 46.24 | 52.24 |  |  |  |  |  |  |
| Cc1cnc(NC(=O)C2=C(O)c3ccccc3S(=O)(=O)N2C)s1.O=C(O)c1ccccc1O [Cocrystal 87, Meloxicam:Salicylic Acid Cocrystal Form I (1:1)] |  |  |  |  |  |  | 0 |  |  |  |  |  |  | 23.61 | 26.76 | 28.85 | 26.79 | 34.16 | 36.54 |
| Cc1cnc(NC(=O)C2=C(O)c3ccccc3S(=O)(=O)N2C)s1.O=C(O)c1ccccc1O [Cocrystal 88, Meloxicam:Salicylic Acid Cocrystal Form III (1:1)] | 0.7675 | 0.8975 | 29600 | 2230 | 46.5 | 11.3 |  | 42.10 µg/mL | 38.19 | 40.48 | 41.18 | 40.50 | 49.13 |  |  |  |  |  |  |
| Cc1cnc(NC(=O)C2=C(O)c3ccccc3S(=O)(=O)N2C)s1.O=C(O)CCCC(=O)O [Cocrystal 92, Meloxicam:Glutaric Acid Cocrystal (1:1)] |  |  |  |  |  |  | 0 | 5.61 µg/mL | 13.16 | 19.11 | 27.72 | 35.94 | 55.35 |  |  |  |  |  |  |
| Cc1cnc(NC(=O)C2=C(O)c3ccccc3S(=O)(=O)N2C)s1.Cc1cnc(NC(=O)C2=C(O)c3ccccc3S(=O)(=O)N2C)s1.O=C(O)/C=C/C(=O)O [Cocrystal 143, Meloxicam:Fumaric Acid Cocrystal (2:1)] |  |  |  |  |  |  | 0 | 3.33 µg/mL | 6.69 | 9.69 | 13.39 | 20.93 | 30.23 |  |  |  |  |  |  |
| Cc1cnc(NC(=O)C2=C(O)c3ccccc3S(=O)(=O)N2C)s1.Cc1cnc(NC(=O)C2=C(O)c3ccccc3S(=O)(=O)N2C)s1.O=C(O)CCC(=O)O [Cocrystal 144, Meloxicam:Succinic Acid Cocrystal (2:1)] | 0.23 |  | 28400 | 1780 | 44.7 | 45.1 | 0 | 13.76 µg/mL |  | 32.54 | 38.13 | 44.02 | 43.47 |  |  |  |  |  |  |
| Cc1cnc(NC(=O)C2=C(O)c3ccccc3S(=O)(=O)N2C)s1.Cc1cnc(NC(=O)C2=C(O)c3ccccc3S(=O)(=O)N2C)s1.O=C(O)CCCCC(=O)O [Cocrystal 152, Meloxicam:Adipic Acid Cocrystal (2:1)] |  |  |  |  |  |  | 0 | 9.72. μg/ml | 22.85 | 28.37 | 30.09 | 38.23 | 47.85 |  |  |  |  |  |  |
| Cc1cnc(NC(=O)C2=C(O)c3ccccc3S(=O)(=O)N2C)s1.O=C(O)c1ccccc1 [Cocrystal 153, Meloxicam:Benzoic Acid Cocrystal (1:1)] |  |  |  |  |  |  | 0 | 21.94 µg/mL | 25.88 | 28.30 | 28.11 | 33.31 | 42.51 |  |  |  |  |  |  |
| Cc1cnc(NC(=O)C2=C(O)c3ccccc3S(=O)(=O)N2C)s1.Cc1cnc(NC(=O)C2=C(O)c3ccccc3S(=O)(=O)N2C)s1.O=C(O)CC(O)C(=O)O [Cocrystal 154, Meloxicam:DL-Malic Acid Cocrystal (2:1)] |  |  |  |  |  |  | 0 | 11.19 µg/mL | 16.59 | 21.96 | 24.90 | 32.31 | 49.72 |  |  |  |  |  |  |
| Cc1cnc(NC(=O)C2=C(O)c3ccccc3S(=O)(=O)N2C)s1.O=C(O)CCc1ccccc1 [Cocrystal 164, Meloxicam:Hydrocinnamic Acid Cocrystal (1:1)] |  |  |  |  |  |  | 0 | 9.53 µg/mL | 11.42 | 16.19 | 18.24 | 25.918 | 45.70 |  |  |  |  |  |  |

From patent US8389512B2 (priority 2008, dated 2013)
